Assay results taken from US20250144056A1, “ANTIMICROBIAL HOST DEFENSE PEPTIDE-INDUCING COMPOSITIONS AND METHODS OF PRODUCTION AND USE THEREOF” (Board of Regents for the Oklahoma Agricultural and …, priority 2022, published 2025).

Tests used:
[1] = system: AvBD9 gene promoter; experiment: HTC/AvBD9-luc luciferase reporter assay; type: cell-based, chicken
Description: Culture and stimulation of a stable HTC/AvBD9-luc luciferase reporter cell line. A stable HTC/AvBD9-luc cell line was generated by cloning a 2.0-Kb AvBD9 gene promoter fragment into a lentiviral luciferase reporter vector, pGreenFire1-mCMV-Puro (System Biosciences, Palo Alto, CA) and then transfected into HTC cells as previously described (22). The stable cell line was maintained in RPMI 1640 containing 10% heat-inactivated FBS, 100 U/ml penicillin, 100 μg/mL streptomycin, and 0.5 μg/mL puromycin and subcultured every 3-4 days. To measure transcriptional activation of the AvBD9 gene promoter in response to different epigenetic compounds, cells were seeded at 4×10^4 cells/well in white 96-well tissue culture plates and stimulated in duplicate with different compounds individually or in combination for 24 h. An equal amount of a solvent was applied as a negative control. Luciferase activity was measured using STEADY-GLO® Luciferase Assay System (Promega, Madison, WI) on an L-Max II luminescence microplate reader (Molecular Devices, Sunnyvale, CA). Cell viabilities were assessed by adding alamarBlue Reagent (ThermoFisher, Waltham, MA) to cell culture 4 h before luciferase assay. Relative luciferase activity was determined for each well after normalization to the cell viability as previously described (22).

[2] = system: chicken HDP genes; experiment: RT-qPCR of multiple HDP genes in HTC cells; type: cell-based
Description: (§1) Culture and stimulation of macrophages. Two different chicken macrophage cell lines, HTC (24) and HD11 (25), were kindly provided by Dr. Narayan C. Rath and Dr. Hyun Lillehoj of USDA-ARS and maintained in RPMI 1640 containing 10% heat-inactivated FBS, 100 U/ml penicillin, and 100 μg/ml streptomycin and subcultured every 3-4 days. After overnight seeding at 1.5×10^6 cells/well in 6-well cell culture plates, cells were treated with different concentrations of each compound for 24 h or with the indicated concentration of each compound for various lengths of time for dose-response and time-course experiments, respectively. […]
(§2) Total RNA extraction and gene expression analysis. […] Gene expression was performed using reverse transcription-quantitative PCR (RT-qPCR) as previously described (27-29). […] The cDNA was then diluted 10-fold with RNase-free water prior to real-time PCR using QuantiTect SYBR® Green PCR Kit (Qiagen, Valencia, CA) in 10-μl reactions using primers specific for HDP, barrier function, and inflammatory cytokine genes as described (27, 29, 30). […] The fold changes in gene expression in the cells treated with individual compounds or in combinations were calculated relative to the cells treated with an equal volume of RPMI 1640 or DMSO using the ΔΔCt method (31).

[3] = system: AvBD4; experiment: RT-qPCR of AvBD4 in HTC cells; type: cell-based, chicken; settings: 2 mM butyrate and at least one concentration of BIX01294, 24 h (FIG. 5)
Description: as §1, §2

[4] = system: AvBD8; experiment: RT-qPCR of AvBD8 in HTC cells; type: cell-based, chicken; settings: 2 mM butyrate and at least one concentration of BIX01294, 24 h (FIG. 5)
Description: as §1, §2

[5] = system: AvBD10; experiment: RT-qPCR of AvBD10 in HTC cells; type: cell-based, chicken; settings: 2 mM butyrate and at least one concentration of BIX01294, 24 h (FIG. 5)
Description: as §1, §2

[6] = system: AvBD9; experiment: RT-qPCR of AvBD9 in HD11 macrophages; type: cell-based, chicken; settings: HD11 cells, 5 μM compound with 2 mM butyrate, 24 h (FIG. 6, Panel A)
Description: as §1, §2

[7] = system: AvBD1; experiment: RT-qPCR of AvBD1 in HD11 macrophages; type: cell-based, chicken; settings: HD11 cells, 5 μM compound with 2 mM butyrate, 24 h (FIG. 6, Panel B)
Description: as §1, §2

[8] = system: AvBD4; experiment: RT-qPCR of AvBD4 in HD11 macrophages; type: cell-based, chicken; settings: HD11 cells, 5 μM compound with 2 mM butyrate, 24 h (FIG. 6, Panel C)
Description: as §1, §2

[9] = system: AvBD9; experiment: RT-qPCR of AvBD9 in peripheral blood mononuclear cells (PBMCs); type: cell-based; settings: chicken PBMCs, 24 h (FIG. 6, Panel F)
Description: Isolation, culture, and stimulation of chicken peripheral blood mononuclear cells (PBMCs). Chicken PBMCs were isolated from EDTA-anticoagulated venous blood collected from 2- to 4-week-old broiler chickens through gradient centrifugation using Histopaque 1077 (Millipore Sigma) as previously described (22, 26). PBMCs were seeded at 3×10^7 cells/well in 6-well cell culture plates and stimulated with different concentrations of an HMTi or DNMTi with or without 1 mM butyrate for 24 h, followed by RNA isolation and HDP gene expression analysis as described below.
Total RNA extraction and gene expression analysis. Total RNA was extracted using RNAzol (Molecular Biology Research Center, Cincinnati, OH) according to the manufacturer's protocol. Gene expression was performed using reverse transcription-quantitative PCR (RT-qPCR) as previously described (27-29). […] The cDNA was then diluted 10-fold with RNase-free water prior to real-time PCR using QuantiTect SYBR® Green PCR Kit (Qiagen, Valencia, CA) in 10-μl reactions using primers specific for HDP, barrier function, and inflammatory cytokine genes as described (27, 29, 30). […] The fold changes in gene expression in the cells treated with individual compounds or in combinations were calculated relative to the cells treated with an equal volume of RPMI 1640 or DMSO using the ΔΔCt method (31).

[10] = system: CLDN1; experiment: RT-qPCR of CLDN1 (claudin 1) in HTC cells; type: cell-based, chicken
Description: (§3) Culture and stimulation of macrophages. Two different chicken macrophage cell lines, HTC (24) and HD11 (25), were kindly provided by Dr. Narayan C. Rath and Dr. Hyun Lillehoj of USDA-ARS and maintained in RPMI 1640 containing 10% heat-inactivated FBS, 100 U/ml penicillin, and 100 μg/ml streptomycin and subcultured every 3-4 days. After overnight seeding at 1.5×10^6 cells/well in 6-well cell culture plates, cells were treated with different concentrations of each compound for 24 h or with the indicated concentration of each compound for various lengths of time for dose-response and time-course experiments, respectively. To study the synergy between HMTi/DNMTi and HDACi, different concentrations of an HMTi or DNMTi were added to the cells in the presence or absence of an HDACi for 24 h, followed by RNA isolation and HDP gene expression analysis as described below. HTC cells were also stimulated with butyrate, BIX01294, or their combination for 24 h, followed by 3-h stimulation with 10 ng/ml LPS and subsequent expression analysis.
(§4) Total RNA extraction and gene expression analysis. Total RNA was extracted using RNAzol (Molecular Biology Research Center, Cincinnati, OH) according to the manufacturer's protocol. Gene expression was performed using reverse transcription-quantitative PCR (RT-qPCR) as previously described (27-29). Reverse transcription was performed with 300 ng of total RNA and Maxima® First Strand cDNA Synthesis Kit (ThermoFisher Scientific, Pittsburgh, PA). The cDNA was then diluted 10-fold with RNase-free water prior to real-time PCR using QuantiTect SYBR® Green PCR Kit (Qiagen, Valencia, CA) in 10-μl reactions using primers specific for HDP, barrier function, and inflammatory cytokine genes as described (27, 29, 30). PCR was run in CFX Connect Real-Time PCR System (Bio-Rad, Hercules, CA) using the following program: 95° C. for 10 min, followed by 40 cycles of 94° C. for 15 sec, 55° C. for 20 sec, and 72° C. for 30 sec. The specificity of PCR reactions was confirmed by the melting curve analysis. The glyceraldehyde-3-phosphate dehydrogenase (GAPDH) gene was used as the reference for data normalization. The fold changes in gene expression in the cells treated with individual compounds or in combinations were calculated relative to the cells treated with an equal volume of RPMI 1640 or DMSO using the ΔΔCt method (31).

[11] = system: IL-1β; experiment: RT-qPCR of IL-1β in HTC cells with or without LPS; type: cell-based, chicken
Description: as §3, §4

[12] = system: IL-8; experiment: RT-qPCR of IL-8 in HTC cells with or without LPS; type: cell-based, chicken
Description: as §3, §4

With `COc1cc2nc(N3CCCN(C)CC3)nc(NC3CCN(Cc4ccccc4)CC3)c2cc1OC` [BIX01294] the “activation of the AvBD9 gene promoter (relative luciferase activity)” value ([1]; compound alone, different concentrations, 24 h (FIG. 2, Panel A)) was “concentration-dependent activation”, the “synergy in luciferase activity with butyrate” value ([1]; different concentrations in combination with 2 mM butyrate, 24 h (FIG. 3)) was “marked dose-dependent increase in the synergy” and the “induction of the HDP genes detectable in HTC cells, combination with butyrate” value ([2]; BIX01294 with 2 mM butyrate, 24 h (FIG. 5)) was “all were synergistically induced”. For the same compound, the “induction of most other HDP genes, combination with HDACi” value ([2]; BIX01294 with any of the three HDACi (vorinostat, butyrate, mocetinostat), 24 h (FIG. 7, Panel B)) was “synergistically induced”, the “AvBD4 induction, combination with butyrate” value [3] was “greater than 100 fold” and the “AvBD8 induction, combination with butyrate” value [4] was “greater than 100 fold”. The “AvBD10 induction, combination with butyrate” value [5] was “greater than 100 fold”, the “synergy in AvBD9 induction with butyrate” value [6] was “drastic synergy” and the “AvBD1 induction, combination with butyrate” value [7] was “synergistically induced, albeit at lower magnitudes”. The “AvBD4 induction, combination with butyrate” value [8] was “synergistically induced, albeit at lower magnitudes”, the AvBD9 induction ([9]; BIX01294 alone) was “induced AvBD9 in a dose-dependent manner” and the “synergy in AvBD9 induction with butyrate” value ([9]; BIX01294 with 1 mM butyrate) was “obvious synergy”. For the same compound, the “CLDN1 synergy with butyrate after subsequent LPS treatment” value ([10]; 5 μM BIX01294 + 2 mM butyrate 24 h, then 10 ng/ml LPS 3 h (FIG. 8, Panel A)) was “further enhanced”, the “synergy in CLDN1 expression with butyrate” value ([10]; 5 μM BIX01294 + 2 mM butyrate, 24 h (FIG. 8, Panel A)) was “marked synergy” and the “activity in increasing CLDN1 expression” value ([10]; 5 μM BIX01294 alone, 24 h (FIG. 8, Panel A)) was “minimum activity”. For the same compound, the “effect on LPS-induced IL-1B expression, combination with butyrate” value ([11]; 5 μM BIX01294 + 2 mM butyrate 24 h, then 10 ng/ml LPS 3 h (FIG. 8, Panel D)) was “significant reduction”, the “IL-1β synthesis, combination with butyrate” value ([11]; 5 μM BIX01294 + 2 mM butyrate, without LPS (FIG. 8, Panel D)) was “tended to have a synergistic effect” and the “effect on LPS-induced IL-1β expression” value ([11]; compound alone 24 h, then 10 ng/ml LPS 3 h (FIG. 8, Panel D)) was “opposite effect”. The “activity in inducing gene expression of IL-1β” value ([11]; compound alone (2 mM butyrate or 5 μM BIX01294), without LPS (FIG. 8, Panel D)) was “no or weak activity”, the “LPS-induced IL-8 expression level, combination with butyrate” value ([12]; 5 μM BIX01294 + 2 mM butyrate 24 h, then 10 ng/ml LPS 3 h (FIG. 8, Panel E)) was “remained elevated” and the “IL-8 synthesis, combination with butyrate” value ([12]; 5 μM BIX01294 + 2 mM butyrate, without LPS (FIG. 8, Panel E)) was “tended to have a synergistic effect”. The “effect on LPS-induced IL-8 expression” value ([12]; compound alone 24 h, then 10 ng/ml LPS 3 h (FIG. 8, Panel E)) was “potentiated” and the “activity in inducing gene expression of IL-8” value ([12]; compound alone (2 mM butyrate or 5 μM BIX01294), without LPS (FIG. 8, Panel E)) was “no or weak activity”.
